In article PMC2952853 (Nucleic Acids Research, 2010):

Legend:
[1] = molecular target: T1, RutR (RutR-His6; YcdC) (Escherichia coli, UniProt P0ACU2); format: binding; conditions: read-out: % inhibition at 100 μM
T1 sequence (P0ACU2 1-212): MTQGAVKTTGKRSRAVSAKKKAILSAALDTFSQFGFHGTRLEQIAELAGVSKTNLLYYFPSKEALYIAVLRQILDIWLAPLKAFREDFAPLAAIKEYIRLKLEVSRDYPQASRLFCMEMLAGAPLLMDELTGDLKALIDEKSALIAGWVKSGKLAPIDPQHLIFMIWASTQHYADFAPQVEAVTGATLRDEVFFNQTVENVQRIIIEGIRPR

[2] = molecular target: T1, RutR (RutR-His6; YcdC); assay: EMSA, inhibition of RutR binding to […]-labelled carP1

inhibition at 100 µM [1] [%]	IC50 [2] [nM]	SMILES
~50		Cc1c[nH]c(=O)[nH]c1=O [thymine]
	~100	O=c1cc[nH]c(=O)[nH]1 [uracil]
